Test results reported in article PMC3694426 (Clinical cancer research : an official journal of the …, 2013).
Entries after “also recorded” stand apart in the source; their conditions may differ. Marks after values point to notes of the source that are not given here.

Experiments:
[1] = phase I dose escalation: DLTs, MTD and treatment-emergent adverse events; format: in vivo, human
[2] = system: pancreatic tumor model with elevated Shh (sonic hedgehog) expression; conditions: stated in introduction; cited from earlier work
[3] = plasma pharmacokinetics in patients; format: in vivo, human; conditions: for CL/F: day 22 of cycle 1, plasma, arithmetic mean (CV%); for half-life: in vivo

CC1=C2C[C@H]3[C@@H](CC[C@@H]4C[C@H](NS(C)(=O)=O)CC[C@@]43C)[C@@H]2CC[C@@]2(C1)O[C@@H]1C[C@H](C)CN[C@H]1[C@H]2C [IPI-926]
patients who experienced DLTs ([1]; 210 mg QD, modified DLT criteria): 2 patients | patients discontinued from the study due to toxicity ([1]; 6 of 94 patients): 6% | ≥grade 2 toxicities ([1]; 20, 30, 40, 60 and 90 mg, 1-patient cohorts): no ≥grade 2 toxicities were documented | deaths while on study ([1]; 94 patients): No patients died while on study | ALT elevation (lab), treatment-emergent adverse event ([1]; <130 mg (n = 5), Grade 1–2): 1 (20) n (%) | AST elevation (lab), treatment-emergent adverse event ([1]; <130 mg (n = 5), Grade 1–2): 1 (20) n (%) | Alopecia, treatment-emergent adverse event ([1]; <130 mg (n = 5), Grade 1–2): 1 (20) n (%) | Decreased appetite, treatment-emergent adverse event ([1]; <130 mg (n = 5), Grade 1–2): 0 (0) n (%) | Diarrhea, treatment-emergent adverse event ([1]; <130 mg (n = 5), Grade 1–2): 0 (0) n (%) | Dysgeusia, treatment-emergent adverse event ([1]; <130 mg (n = 5), Grade 1–2): 1 (20) n (%) | Fatigue, treatment-emergent adverse event ([1]; <130 mg (n = 5), Grade 1–2): 2 (40) n (%) | Hemoglobin (lab), treatment-emergent adverse event ([1]; <130 mg (n = 5), Grade 1–2): 3 (60) n (%) | Muscle spasms, treatment-emergent adverse event ([1]; <130 mg (n = 5), Grade 1–2): 2 (40) n (%) | Nausea, treatment-emergent adverse event ([1]; <130 mg (n = 5), Grade 1–2): 1 (20) n (%) | Thrombocytopenia (lab), treatment-emergent adverse event ([1]; <130 mg (n = 5), Grade 1–2): 0 (0) n (%) | Vomiting, treatment-emergent adverse event ([1]; <130 mg (n = 5), Grade 1–2): 0 (0) n (%) | ALT elevation (lab), treatment-emergent adverse event ([1]; <130 mg (n = 5), Grade ≥3): 0 (0) n (%) | AST elevation (lab), treatment-emergent adverse event ([1]; <130 mg (n = 5), Grade ≥3): 0 (0) n (%) | Alopecia, treatment-emergent adverse event ([1]; <130 mg (n = 5), Grade ≥3): 0 (0) n (%) | Decreased appetite, treatment-emergent adverse event ([1]; <130 mg (n = 5), Grade ≥3): 0 (0) n (%) | Diarrhea, treatment-emergent adverse event ([1]; <130 mg (n = 5), Grade ≥3): 0 (0) n (%) | Dysgeusia, treatment-emergent adverse event ([1]; <130 mg (n = 5), Grade ≥3): 0 (0) n (%) | Fatigue, treatment-emergent adverse event ([1]; <130 mg (n = 5), Grade ≥3): 0 (0) n (%) | Hemoglobin (lab), treatment-emergent adverse event ([1]; <130 mg (n = 5), Grade ≥3): 0 (0) n (%) | Muscle spasms, treatment-emergent adverse event ([1]; <130 mg (n = 5), Grade ≥3): 0 (0) n (%) | Nausea, treatment-emergent adverse event ([1]; <130 mg (n = 5), Grade ≥3): 0 (0) n (%) | Thrombocytopenia (lab), treatment-emergent adverse event ([1]; <130 mg (n = 5), Grade ≥3): 0 (0) n (%) | Vomiting, treatment-emergent adverse event ([1]; <130 mg (n = 5), Grade ≥3): 0 (0) n (%) | ALT elevation (lab), treatment-emergent adverse event ([1]; >160 mg (n = 15), Grade 1–2): 11 (73) n (%) | AST elevation (lab), treatment-emergent adverse event ([1]; >160 mg (n = 15), Grade 1–2): 12 (80) n (%) | Alopecia, treatment-emergent adverse event ([1]; >160 mg (n = 15), Grade 1–2): 2 (13) n (%) | Decreased appetite, treatment-emergent adverse event ([1]; >160 mg (n = 15), Grade 1–2): 4 (27) n (%) | Diarrhea, treatment-emergent adverse event ([1]; >160 mg (n = 15), Grade 1–2): 2 (13) n (%) | Dysgeusia, treatment-emergent adverse event ([1]; >160 mg (n = 15), Grade 1–2): 1 (7) n (%) | Fatigue, treatment-emergent adverse event ([1]; >160 mg (n = 15), Grade 1–2): 6 (40) n (%) | Hemoglobin (lab), treatment-emergent adverse event ([1]; >160 mg (n = 15), Grade 1–2): 12 (80) n (%) | Muscle spasms, treatment-emergent adverse event ([1]; >160 mg (n = 15), Grade 1–2): 4 (27) n (%) | Nausea, treatment-emergent adverse event ([1]; >160 mg (n = 15), Grade 1–2): 7 (47) n (%) | Thrombocytopenia (lab), treatment-emergent adverse event ([1]; >160 mg (n = 15), Grade 1–2): 1 (7) n (%) | Vomiting, treatment-emergent adverse event ([1]; >160 mg (n = 15), Grade 1–2): 5 (33) n (%) | ALT elevation (lab), treatment-emergent adverse event ([1]; >160 mg (n = 15), Grade ≥3): 4 (27) n (%) | AST elevation (lab), treatment-emergent adverse event ([1]; >160 mg (n = 15), Grade ≥3): 3 (20) n (%) | Alopecia, treatment-emergent adverse event ([1]; >160 mg (n = 15), Grade ≥3): 0 (0) n (%) | Decreased appetite, treatment-emergent adverse event ([1]; >160 mg (n = 15), Grade ≥3): 1 (7) n (%) | Diarrhea, treatment-emergent adverse event ([1]; >160 mg (n = 15), Grade ≥3): 0 (0) n (%) | Dysgeusia, treatment-emergent adverse event ([1]; >160 mg (n = 15), Grade ≥3): 0 (0) n (%) | Fatigue, treatment-emergent adverse event ([1]; >160 mg (n = 15), Grade ≥3): 2 (13) n (%) | Hemoglobin (lab), treatment-emergent adverse event ([1]; >160 mg (n = 15), Grade ≥3): 1 (7) n (%) | Muscle spasms, treatment-emergent adverse event ([1]; >160 mg (n = 15), Grade ≥3): 0 (0) n (%) | Nausea, treatment-emergent adverse event ([1]; >160 mg (n = 15), Grade ≥3): 0 (0) n (%) | Thrombocytopenia (lab), treatment-emergent adverse event ([1]; >160 mg (n = 15), Grade ≥3): 0 (0) n (%) | Vomiting, treatment-emergent adverse event ([1]; >160 mg (n = 15), Grade ≥3): 0 (0) n (%) | recommended phase II / single-agent dose ([1]; QD, 28-day cycles): 160 mg | dose levels well tolerated ([1]; administered QD): up to 160 mg | hematologic toxicity ([1]; all dose levels): not associated with hematologic toxicity; also recorded: No significant hematologic toxicities | patients reporting alopecia ([1]; at the MTD): 22% | patients reporting muscle spasms ([1]; at the MTD): 33% | Shh signaling in surrounding stromal tissue (Gli1 mRNA) [2]: inhibited Shh signaling | tumor growth [2]: slows tumor growth | CL/F ([3]; 20 mg QD oral (n = 1)): 111 (NC) L/h | CL/F ([3]; 30 mg QD oral (n = 1)): 59.0 (NC) L/h | CL/F ([3]; 40 mg QD oral (n = 1)): 50.0 (NC) L/h | CL/F ([3]; 60 mg QD oral (n = 1)): 28.6 (NC) L/h | CL/F ([3]; 130 mg QD oral, n = 4): 23.0 (36.0) ^b L/h | CL/F ([3]; 160 mg QD oral (n = 4)): 21.2 (38.5) L/h | CL/F ([3]; 180 mg QD oral (n = 1)): 14.0 (NC) L/h | CL/F ([3]; 200 mg QD oral (n = 1)): 13.3 (NC) L/h | CL/F ([3]; 210 mg QD oral (n = 5)): 20.6 (35.5) L/h | mean oral clearance (CL/F) ([3]; 130-mg dose level, expanded phases): 27.4 L/h | mean oral clearance (CL/F) ([3]; 160-mg dose level, expanded phases): 20.1 L/h | half-life ([3]; human, po): 20 to 40 h | half-life ([3]; human, po, 130 mg): 19.3 h | half-life ([3]; human, po, 160 mg): 17.3 h | half-life ([3]; human, po, 180 mg): 16.1 h | half-life ([3]; human, po, 200 mg): 12.7 h | Tmax ([3]; human, plasma, po, Tmax (slow absorption), overall summary, patients): 2 to 8 h | dose dependence of mean AUC0–24 and Cmax ([3]; single and multiple doses of 130 to 160 mg, expanded phases): dose-proportional manner
